From patent US8673930B2, “Pyrimidylaminobenzamide derivatives for systemic mastocytosis” (Novartis AG, priority 2005, dated 2014)

Assays:
GIST882 cells = assay: GIST882 cell proliferation assay (ATPLite luminescent ATP detection); assay type: cell-based; conditions: Homo sapiens; GIST882 cells (KIT K-642-E), 70 h incubation, mean value; read-out: mean IC50, inhibition of proliferation of GIST882 cells
Protocol: The effects of compounds on viability and proliferation of the cells is determined using the luminescent ATP Detection assay kit ATPLite™ from Perkin Elmer Life Sciences (Cat. No: 6016947) according to the instructions of the suppliers. This assay system is based on the production of light (luminescence) caused by the reaction of ATP with added luciferase and D-luciferin.
GIST882, is a human gastrointestinal stromal tumor (GIST) cell line expressing an activating KIT mutation (exon 13, K-642-E) (Tuveson D A, Willis N A, Jacks T, Griffin J D, Singer S, Fletcher C D, Fletcher J A, Demetri G D, STI571 inactivation of the gastrointestinal stromal tumor c-KIT oncoprotein: biological and clinical implications, Oncogene, 2001 Aug. 16; 20(36):5054-8). The GIST882 cells are cultivated in RPMI 1640 (Invitromex, Cat. No: L0501), supplemented with 15% FCS, and 2 mM glutamine (Gibco). […]
GIST882 cells are seeded into black 96-well tissue culture plates (Packard) at a density of 10000 cells per well in 50 μL complete medium and incubated for one day in order to allow for attachment of the cells. […] Subsequently, 50 μL substrate solution (luciferase and D-luciferin) is added and after 5 min shaking and 10 min dark-adaptation of the plates, light emission was measured with a Packard TopCount. […]

[1] = tested on: systemic mastocytosis (SM) patients; assay: Phase II open-label study in SM patients; assay type: in vivo, human; conditions: 400 mg orally twice daily, first 23 pts, preliminary data
Protocol: A Phase II, open-label study was designed to evaluate the safety and efficacy of Compound (II) administered orally 400 mg twice daily. SM patients meeting specific disease criteria and with a clinical indication for treatment were enrolled. The results are based on preliminary data for the first 23 pts in this study. Results: The median age was 49 (range 33-78) yrs and the median time from diagnosis of SM was 27 (range 1 to 292) months. […] The median exposure to Compound (II) was 144 days. Treatment is ongoing for 18 (78%) pts; 5 (22%) discontinued, 3 (13%) for adverse events and 2 (9%) withdrew consent. Three (13%) responses were reported (2 incomplete remission and 1 minor response), based on serum tryptase, bone marrow mast cell counts and improvement of clinical symptoms.

## Cc1cn(-c2cc(NC(=O)c3ccc(C)c(Nc4nccc(-c5cccnc5)n4)c3)cc(C(F)(F)F)c2)cn1 [Compound (II), 4-methyl-3-[[4-(3-pyridinyl)-2-pyrimidinyl]amino]-N-[5-(4-methyl-1H-imidazol-1-yl)-3-(trifluoromethyl)phenyl]benzamide]
GIST882 cells
  IC50: < 0.2 µM
[1]; median exposure 144 days
  discontinued for adverse events: 13%
[1]
  safety and tolerability in pts with SM: acceptable safety and tolerability profile
[1]; 2 incomplete remission and 1 minor response
  responses (based on serum tryptase, bone marrow mast cell counts and improvement of clinical symptoms): 13%
